Laboratory results taken from PMC9487190 (Parasitology research, 2022).

How the values were obtained:
[1] = test system: protoscoleces of E. granulosus; settings: 100 μM; ref Camicia et al., 2013; Herz and Brehm, 2021; cited from earlier work
EgSERT [2] = target: T1, EgSERT (Echinococcus granulosus, UniProt W6UF91); format: cell-based; settings: at around 1 μM
S. mansoni miracidia = settings: exogenously added, 50 μM; ref Taft et al., 2010; cited from earlier work
[3] = test system: human cystic echinococcosis (CE); settings: ref Gottstein et al., 2015; Hemphill et al., 2014; cited from earlier work
EgSERT [4] = target: T1, EgSERT; format: cell-based; settings: 50 nM radiolabeled substrate, 10 min, room temperature, COS-7 cells
[5] = test system: E. multilocularis metacestode vesicles and primary cells; settings: ref Herz and Brehm (2021), cited from earlier work
EgSERT [6] = target: T1, EgSERT; format: cell-based; settings: COS-7 cells, 15 nM – 10 μM serotonin, 10 min

CN(C)CCCC1(c2ccc(F)cc2)OCc2cc(C#N)ccc21 (stereo not drawn) [citalopram]
effect on motility and development of protoscoleces [1]: strong inhibitory effect | inhibition of serotonin transport by EgSERT (EgSERT [2]): almost complete inhibition | effect on miracidial transformation rates (S. mansoni miracidia): detrimental effect

CCCSc1ccc2nc(NC(=O)OC)[nH]c2c1 [ABZ, albendazole]
share of CE cases in which treatment is ineffective [3]: ~ 40%

NCCc1ccc(O)c(O)c1 [dopamine]
transport of radiolabeled substrate by EgSERT compared with background (EgSERT [4]): does not transport

NCCc1c[nH]c2ccc(O)cc12 [serotonin, 5-hydroxytryptamine]
transport of radiolabeled substrate by EgSERT compared with background (EgSERT [4]): significantly higher accumulation | metacestode vesicle formation and cell proliferation from primary cells ([5]; exogenous, dose dependent): induces metacestode vesicle formation and cell proliferation | Vmax of serotonin uptake (EgSERT [6]): 615 ± 33 fmol/min/well

NCC(=O)O [glycine]
transport of radiolabeled substrate by EgSERT compared with background (EgSERT [4]): does not transport

NCCCC(=O)O [GABA]
transport of radiolabeled substrate by EgSERT compared with background (EgSERT [4]): does not transport

N[C@@H](CCC(=O)O)C(=O)O [glutamate, glutamic acid]
transport of radiolabeled substrate by EgSERT compared with background (EgSERT [4]): does not transport

Fc1ccc([C@@H]2CCNC[C@H]2COc2ccc3c(c2)OCO3)cc1 [paroxetine]
metacestode vesicle damage and viability of primary cell culture ([5]; 100 μM): significant metacestode vesicle damage and cell viability reduction
